# Experimental data reported in US20100197797A1 (priority 2009, published 2010).
# How the values were obtained:
# healthy subjects = experiment: Placebo-controlled clinical pharmacology study, blood pressure at supratherapeutic doses; type: in vivo, human; details: 300 mg twice daily, 12 hour steady state dosing interval
# humans = experiment: Acute overdose in clinical trials; type: in vivo, human; details: up to 1000 mg, alone or in combination with other drugs
# Source text: There is limited clinical experience with milnacipran hydrochloride overdose in humans.
# fibromyalgia patients = experiment: Placebo-controlled trials in fibromyalgia patients (safety); type: in vivo, human; details: for patients with >15 mmHg increase in SBP at the end of the study / patients with DBP increases >10 mmHg at end of study: hypertensive at baseline; for patients with increases in ALT: mild elevations (1-3 times ULN); for patients who became hypertensive at the end of the study (SBP≧140 mmHg or DBP≧90 mmHg): non-hypertensive at baseline; for incidence of suicidal ideation: patients with a history of depression at treatment initiation; for patients who became hypertensive at the end of the study: pre-hypertension at baseline (SBP 120-139 mmHg); for mean weight loss: up to 3 months
# Source text: The stated frequencies of adverse reactions represent the proportion of individuals who experienced, at least once, a treatment-emergent adverse reaction of the type listed. A reaction was considered treatment emergent if it occurred for the first time or worsened while receiving therapy following baseline evaluation.
# plasma proteins = experiment: Plasma protein binding; type: in vitro ADME
# Human pharmacokinetics = details: in vivo
# Protocol: The pharmacokinetic parameters described herein include area under the plasma concentration-time curve (AUC0-t and AUC0-∞), maximum plasma concentration (Cmax), time of maximum plasma concentration (Tmax) and terminal elimination half-life (T1/2). The time of maximum concentration, Tmax, is determined as the time corresponding to Cmax. Area under the plasma concentration-time curve up to the time corresponding to the last measurable concentration (AUC0-t) is calculated by numerical integration using the linear trapezoidal rule as follows: […]
# [1] = 3-month placebo-controlled trials
# [2] = all milnacipran hydrochloride (n = 1557)
smiles,measurement,setting,value
"CCN(CC)C(=O)C1(c2ccccc2)CC1CN.Cl (racemic) [milnacipran hydrochloride, (±)-[1R(S),2S(R)]-2-(aminomethyl)-N,N-diethyl-1-phenylcyclopropanecarboxamide hydrochloride]",mean increase in supine diastolic blood pressure,healthy subjects,up to 11.5 mm Hg
same,mean increase in supine systolic blood pressure,healthy subjects,up to 10.0 mm Hg
same,outcome of acute ingestions,humans,none being fatal
same,patients who discontinued prematurely due to adverse reactions,fibromyalgia patients; 100 mg/day,23%
same,patients with increases in AST,fibromyalgia patients; 100 mg/day,3%
same,patients with increases in pulse≧20 bpm,fibromyalgia patients; 100 mg/day,8%
same,sustained increases in DBP (≧10 mmHg on 3 consecutive post-baseline visits),fibromyalgia patients; 100 mg/day,13%
same,sustained increases in SBP (≧15 mmHg on three consecutive post-baseline visits),fibromyalgia patients; 100 mg/day,9%
same,Adverse reaction incidence: Abdominal pain,fibromyalgia patients; 100 mg/day (n = 623),3%
same,Adverse reaction incidence: Anxiety,fibromyalgia patients; 100 mg/day (n = 623),5%
same,Adverse reaction incidence: Blood pressure increased,fibromyalgia patients; 100 mg/day (n = 623),3%
same,Adverse reaction incidence: Chest discomfort,fibromyalgia patients; 100 mg/day (n = 623),2%
same,Adverse reaction incidence: Chest pain,fibromyalgia patients; 100 mg/day (n = 623),3%
same,Adverse reaction incidence: Chills,fibromyalgia patients; 100 mg/day (n = 623),1%
same,Adverse reaction incidence: Constipation,fibromyalgia patients; 100 mg/day (n = 623),16%
same,Adverse reaction incidence: Decreased appetite,fibromyalgia patients; 100 mg/day (n = 623),1%
same,Adverse reaction incidence: Dizziness,fibromyalgia patients; 100 mg/day (n = 623),11%
same,Adverse reaction incidence: Dry mouth,fibromyalgia patients; 100 mg/day (n = 623),5%
same,Adverse reaction incidence: Dyspnea,fibromyalgia patients; 100 mg/day (n = 623),2%
same,Adverse reaction incidence: Flushing,fibromyalgia patients; 100 mg/day (n = 623),2%
same,Adverse reaction incidence: Headache,fibromyalgia patients; 100 mg/day (n = 623),19%
same,Adverse reaction incidence: Heart rate increased,fibromyalgia patients; 100 mg/day (n = 623),5%
same,Adverse reaction incidence: Hot flush,fibromyalgia patients; 100 mg/day (n = 623),11%
same,Adverse reaction incidence: Hyperhidrosis,fibromyalgia patients; 100 mg/day (n = 623),8%
same,Adverse reaction incidence: Hypertension,fibromyalgia patients; 100 mg/day (n = 623),7%
same,Adverse reaction incidence: Hypoesthesia,fibromyalgia patients; 100 mg/day (n = 623),1%
same,Adverse reaction incidence: Insomnia,fibromyalgia patients; 100 mg/day (n = 623),12%
same,Adverse reaction incidence: Migraine,fibromyalgia patients; 100 mg/day (n = 623),6%
same,Adverse reaction incidence: Nausea,fibromyalgia patients; 100 mg/day (n = 623),35%
same,Adverse reaction incidence: Palpitations,fibromyalgia patients; 100 mg/day (n = 623),8%
same,Adverse reaction incidence: Paresthesia,fibromyalgia patients; 100 mg/day (n = 623),2%
same,Adverse reaction incidence: Pruritus,fibromyalgia patients; 100 mg/day (n = 623),3%
same,Adverse reaction incidence: Rash,fibromyalgia patients; 100 mg/day (n = 623),3%
same,Adverse reaction incidence: Tachycardia,fibromyalgia patients; 100 mg/day (n = 623),3%
same,Adverse reaction incidence: Tension headache,fibromyalgia patients; 100 mg/day (n = 623),2%
same,Adverse reaction incidence: Tremor,fibromyalgia patients; 100 mg/day (n = 623),2%
same,Adverse reaction incidence: Upper respiratory tract infection,fibromyalgia patients; 100 mg/day (n = 623),7%
same,Adverse reaction incidence: Vision blurred,fibromyalgia patients; 100 mg/day (n = 623),1%
same,Adverse reaction incidence: Vomiting,fibromyalgia patients; 100 mg/day (n = 623),6%
same,patients with increase in ALT greater than 5 times (not exceeding 10 times) the upper limit of normal,"fibromyalgia patients; 100 mg/day, one patient",0.2%
same,patients who discontinued prematurely due to adverse reactions,fibromyalgia patients; 200 mg/day,26%
same,patients with increases in AST,fibromyalgia patients; 200 mg/day,5%
same,patients with increases in pulse≧20 bpm,fibromyalgia patients; 200 mg/day,8%
same,sustained increases in DBP (≧10 mmHg on 3 consecutive post-baseline visits),fibromyalgia patients; 200 mg/day,10%
same,sustained increases in SBP (≧15 mmHg on three consecutive post-baseline visits),fibromyalgia patients; 200 mg/day,6%
same,Adverse reaction incidence: Abdominal pain,fibromyalgia patients; 200 mg/day (n = 934),3%
same,Adverse reaction incidence: Anxiety,fibromyalgia patients; 200 mg/day (n = 934),3%
same,Adverse reaction incidence: Blood pressure increased,fibromyalgia patients; 200 mg/day (n = 934),3%
same,Adverse reaction incidence: Chest discomfort,fibromyalgia patients; 200 mg/day (n = 934),1%
same,Adverse reaction incidence: Chest pain,fibromyalgia patients; 200 mg/day (n = 934),2%
same,Adverse reaction incidence: Chills,fibromyalgia patients; 200 mg/day (n = 934),2%
same,Adverse reaction incidence: Constipation,fibromyalgia patients; 200 mg/day (n = 934),15%
same,Adverse reaction incidence: Decreased appetite,fibromyalgia patients; 200 mg/day (n = 934),2%
same,Adverse reaction incidence: Dizziness,fibromyalgia patients; 200 mg/day (n = 934),10%
same,Adverse reaction incidence: Dry mouth,fibromyalgia patients; 200 mg/day (n = 934),5%
same,Adverse reaction incidence: Dyspnea,fibromyalgia patients; 200 mg/day (n = 934),2%
same,Adverse reaction incidence: Flushing,fibromyalgia patients; 200 mg/day (n = 934),3%
same,Adverse reaction incidence: Headache,fibromyalgia patients; 200 mg/day (n = 934),17%
same,Adverse reaction incidence: Heart rate increased,fibromyalgia patients; 200 mg/day (n = 934),6%
same,Adverse reaction incidence: Hot flush,fibromyalgia patients; 200 mg/day (n = 934),12%
same,Adverse reaction incidence: Hyperhidrosis,fibromyalgia patients; 200 mg/day (n = 934),9%
same,Adverse reaction incidence: Hypertension,fibromyalgia patients; 200 mg/day (n = 934),4%
same,Adverse reaction incidence: Hypoesthesia,fibromyalgia patients; 200 mg/day (n = 934),2%
same,Adverse reaction incidence: Insomnia,fibromyalgia patients; 200 mg/day (n = 934),12%
same,Adverse reaction incidence: Migraine,fibromyalgia patients; 200 mg/day (n = 934),4%
same,Adverse reaction incidence: Nausea,fibromyalgia patients; 200 mg/day (n = 934),39%
same,Adverse reaction incidence: Palpitations,fibromyalgia patients; 200 mg/day (n = 934),7%
same,Adverse reaction incidence: Paresthesia,fibromyalgia patients; 200 mg/day (n = 934),3%
same,Adverse reaction incidence: Pruritus,fibromyalgia patients; 200 mg/day (n = 934),2%
same,Adverse reaction incidence: Rash,fibromyalgia patients; 200 mg/day (n = 934),4%
same,Adverse reaction incidence: Tachycardia,fibromyalgia patients; 200 mg/day (n = 934),2%
same,Adverse reaction incidence: Tension headache,fibromyalgia patients; 200 mg/day (n = 934),1%
same,Adverse reaction incidence: Tremor,fibromyalgia patients; 200 mg/day (n = 934),2%
same,Adverse reaction incidence: Upper respiratory tract infection,fibromyalgia patients; 200 mg/day (n = 934),6%
same,Adverse reaction incidence: Vision blurred,fibromyalgia patients; 200 mg/day (n = 934),2%
same,Adverse reaction incidence: Vomiting,fibromyalgia patients; 200 mg/day (n = 934),7%
same,mean increase in diastolic blood pressure (DBP),fibromyalgia patients; [1],up to 3.1 mm Hg
same,mean increase in systolic blood pressure (SBP),fibromyalgia patients; [1],up to 3.1 mm Hg
same,dose dependence of effect on heart rate,fibromyalgia patients; 100 vs 200 mg/day,did not appear to increase with increasing dose
same,Adverse reaction incidence: Abdominal pain,fibromyalgia patients; [2],3%
same,Adverse reaction incidence: Anxiety,fibromyalgia patients; [2],4%
same,Adverse reaction incidence: Blood pressure increased,fibromyalgia patients; [2],3%
same,Adverse reaction incidence: Chest discomfort,fibromyalgia patients; [2],1%
same,Adverse reaction incidence: Chest pain,fibromyalgia patients; [2],2%
same,Adverse reaction incidence: Chills,fibromyalgia patients; [2],2%
same,Adverse reaction incidence: Constipation,fibromyalgia patients; [2],16%
same,Adverse reaction incidence: Decreased appetite,fibromyalgia patients; [2],2%
same,Adverse reaction incidence: Dizziness,fibromyalgia patients; [2],10%
same,Adverse reaction incidence: Dry mouth,fibromyalgia patients; [2],5%
same,Adverse reaction incidence: Dyspnea,fibromyalgia patients; [2],2%
same,Adverse reaction incidence: Flushing,fibromyalgia patients; [2],3%
same,Adverse reaction incidence: Headache,fibromyalgia patients; [2],18%
same,Adverse reaction incidence: Heart rate increased,fibromyalgia patients; [2],6%
same,Adverse reaction incidence: Hot flush,fibromyalgia patients; [2],12%
same,Adverse reaction incidence: Hyperhidrosis,fibromyalgia patients; [2],9%
same,Adverse reaction incidence: Hypertension,fibromyalgia patients; [2],5%
same,Adverse reaction incidence: Hypoesthesia,fibromyalgia patients; [2],1%
same,Adverse reaction incidence: Insomnia,fibromyalgia patients; [2],12%
same,Adverse reaction incidence: Migraine,fibromyalgia patients; [2],5%
same,Adverse reaction incidence: Nausea,fibromyalgia patients; [2],37%
same,Adverse reaction incidence: Palpitations,fibromyalgia patients; [2],7%
same,Adverse reaction incidence: Paresthesia,fibromyalgia patients; [2],2%
same,Adverse reaction incidence: Pruritus,fibromyalgia patients; [2],2%
same,Adverse reaction incidence: Rash,fibromyalgia patients; [2],3%
same,Adverse reaction incidence: Tachycardia,fibromyalgia patients; [2],2%
same,Adverse reaction incidence: Tension headache,fibromyalgia patients; [2],1%
same,Adverse reaction incidence: Tremor,fibromyalgia patients; [2],2%
same,Adverse reaction incidence: Upper respiratory tract infection,fibromyalgia patients; [2],6%
same,Adverse reaction incidence: Vision blurred,fibromyalgia patients; [2],2%
same,Adverse reaction incidence: Vomiting,fibromyalgia patients; [2],7%
same,elevated transaminases vs placebo,fibromyalgia patients; clinical trials,more patients treated with milnacipran hydrochloride developed elevated transaminases
same,risk of mydriasis,fibromyalgia patients; clinical trials,increased risk of mydriasis
same,incidence of dysuria,fibromyalgia patients; controlled fibromyalgia trials,1%
same,incidence of genitourinary adverse reactions in male patients,"fibromyalgia patients; each of dysuria, ejaculation disorder, erectile dysfunction, ejaculation failure, libido decreased, prostatitis, scrotal pain, testicular pain, testicular swelling, urinary hesitation, urinary retention, urethral pain, urine flow decreased, rate greater than placebo",at least 2%
same,increases of bilirubin,fibromyalgia patients; fibromyalgia clinical trials,not clinically significant
same,cases of ALT>3×ULN associated with bilirubin≧2×ULN,"fibromyalgia patients; human, in vivo",No case
same,most common adverse reactions (incidence≧5% and twice placebo),"fibromyalgia patients; human, in vivo","constipation, hot flush, hyperhidrosis, vomiting, palpitations, heart rate increased, dry mouth, and hypertension"
same,most frequently occurring adverse reaction,"fibromyalgia patients; human, in vivo",nausea
same,patients with >15 mmHg increase in SBP at the end of the study,fibromyalgia patients; 100 mg/day,7%
same,patients with DBP increases >10 mmHg at end of study,fibromyalgia patients; 100 mg/day,8%
same,patients with >15 mmHg increase in SBP at the end of the study,fibromyalgia patients; 200 mg/day,2%
same,patients with DBP increases >10 mmHg at end of study,fibromyalgia patients; 200 mg/day,6%
same,patients with increases in ALT,fibromyalgia patients; 100 mg/day,6%
same,patients with increases in ALT,fibromyalgia patients; 200 mg/day,7%
same,patients who became hypertensive at the end of the study (SBP≧140 mmHg or DBP≧90 mmHg),fibromyalgia patients; 100 mg/day,19.5%
same,patients who became hypertensive at the end of the study (SBP≧140 mmHg or DBP≧90 mmHg),fibromyalgia patients; 200 mg/day,16.6%
same,incidence of suicidal ideation,fibromyalgia patients; 100 mg/day,0%
same,incidence of suicidal ideation,fibromyalgia patients; 200 mg/day,1.3%
same,patients who became hypertensive at the end of the study,fibromyalgia patients; 100 mg/day,14%
same,patients who became hypertensive at the end of the study,fibromyalgia patients; 200 mg/day,14%
same,suicides,fibromyalgia patients; short-term or longer-term (up to 1 year) fibromyalgia trials,No suicides occurred
same,activation of mania or hypomania,fibromyalgia patients; trials excluded current major depressive episode,No activation of mania or hypomania was reported
same,mean weight loss,fibromyalgia patients; 100 mg/day,approximately 0.8 kg
same,mean weight loss,fibromyalgia patients; 200 mg/day,approximately 0.8 kg
same,plasma protein binding,plasma proteins,13%
same,effect of food on absorption,Human pharmacokinetics,not affected by food
